From PubChem BioAssay AID2060902 (Molecular Pharmacology Branch, DTP, NCI, 2025)

Tested on: 485368-065-R3-J5-PDC spheroids with HUVEC/MSC, viability
Assay: Anticancer human tumor 485368-065-R3-J5-PDC patient-derived pancreatic carcinoma cell line growth inhibition [RAS]
Conditions: for IC50: curve of first compound; for viability, T/C: stronger effect = lower value; active means viability on the fitted dose curve at most 10% of control; inactive means the rest
In short: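 Agents were tested in combination matrices in half-log decrements from a top concentration at or near clinical Cmax (10 microM if undetermined). Targets were multi-cell spheroids of tumour lines plus HUVEC and MSC stromal cells.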

[1] = second compound 0.000949 µM, first compound 0.0316 µM
[2] = second compound 0.000949 µM, first compound 0.1 µM
[3] = second compound 0.000949 µM, first compound 0.316 µM
[4] = second compound 0.000949 µM, first compound 1 µM
[5] = second compound 0.003 µM, first compound 0.0316 µM
[6] = second compound 0.003 µM, first compound 0.1 µM
[7] = second compound 0.003 µM, first compound 0.316 µM
[8] = second compound 0.003 µM, first compound 1 µM
[9] = second compound 0.00949 µM, first compound 0.0316 µM
[10] = second compound 0.00949 µM, first compound 0.1 µM
[11] = second compound 0.00949 µM, first compound 0.316 µM
[12] = second compound 0.00949 µM, first compound 1 µM
[13] = second compound 0.03 µM, first compound 0.0316 µM
[14] = second compound 0.03 µM, first compound 0.1 µM
[15] = second compound 0.03 µM, first compound 0.316 µM
[16] = second compound 0.03 µM, first compound 1 µM
[17] = second compound 0.0949 µM, first compound 0.0316 µM
[18] = second compound 0.0949 µM, first compound 0.1 µM
[19] = second compound 0.0949 µM, first compound 0.316 µM
[20] = second compound 0.0949 µM, first compound 1 µM
[21] = second compound 0.3 µM, first compound 0.0316 µM
[22] = second compound 0.3 µM, first compound 0.1 µM
[23] = second compound 0.3 µM, first compound 0.316 µM
[24] = second compound 0.3 µM, first compound 1 µM
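Further: spheroids exposed to agents for seven days before readout.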

NC1c2ccccc2OC12CCN(c1cnc3c(N4CCCc5ncccc54)n[nH]c3n1)CC2 (centres undefined) + CCn1c(-c2cc(N3CCN(C)CC3)cnc2C(C)OC)c2c3cc(ccc31)-c1csc(n1)CC(NC(=O)C1CC1C)C(=O)N1CCCC(N1)C(=O)OCC(C)(C)C2
< 31.6 nM: IC50 (second compound 0.000949 µM) | IC50 (second compound 0.003 µM) | IC50 (second compound 0.00949 µM) | IC50 (second compound 0.03 µM) | IC50 (second compound 0.0949 µM) | IC50 (second compound 0.3 µM)
active: viability, T/C (second compound 0.000949 µM, first compound 3.16 µM) 5.97% | viability, T/C (second compound 0.000949 µM, first compound 10 µM) 4.14% | viability, T/C [7] 9.36% | viability, T/C [8] 4.72% | viability, T/C (second compound 0.003 µM, first compound 3.16 µM) 3.77% | viability, T/C (second compound 0.003 µM, first compound 10 µM) 1.44% | viability, T/C [10] 8.1% | viability, T/C [11] 5.43% | viability, T/C [12] 2.3% | viability, T/C (second compound 0.00949 µM, first compound 3.16 µM) 2.03% | viability, T/C (second compound 0.00949 µM, first compound 10 µM) 0.85% | viability, T/C [13] 7.1% | viability, T/C [14] 6.69% | viability, T/C [15] 3.1% | viability, T/C [16] 1.62% | viability, T/C (second compound 0.03 µM, first compound 3.16 µM) 0.67% | viability, T/C (second compound 0.03 µM, first compound 10 µM) 0.58% | viability, T/C [17] 6.28% | viability, T/C [18] 4.31% | viability, T/C [19] 2.01% | viability, T/C [20] 0.85% | viability, T/C (second compound 0.0949 µM, first compound 3.16 µM) 0.88% | viability, T/C (second compound 0.0949 µM, first compound 10 µM) 0.54% | viability, T/C [21] 6.78% | viability, T/C [22] 3.56% | viability, T/C [23] 2.12% | viability, T/C [24] 1% | viability, T/C (second compound 0.3 µM, first compound 3.16 µM) 0.91% | viability, T/C (second compound 0.3 µM, first compound 10 µM) 0.53%
inactive: viability, T/C [1] 20.7% | viability, T/C [2] 16% | viability, T/C [3] 14.1% | viability, T/C [4] 10.6% | viability, T/C [5] 15.1% | viability, T/C [6] 12.5% | viability, T/C [9] 12.7%

Nc1ccn(C2OC(CO)C(O)C2(F)F)c(=O)n1 (centres undefined) + CCn1c(-c2cc(N3CCN(C)CC3)cnc2C(C)OC)c2c3cc(ccc31)-c1csc(n1)CC(NC(=O)C1CC1C)C(=O)N1CCCC(N1)C(=O)OCC(C)(C)C2
active: viability, T/C [1] 8.79% | viability, T/C [2] 6.33% | viability, T/C [3] 6.11% | viability, T/C [4] 5.93% | viability, T/C [5] 9.81% | viability, T/C [6] 6.58% | viability, T/C [7] 9.3% | viability, T/C [8] 6.96% | viability, T/C [9] 9.06% | viability, T/C [10] 8.14% | viability, T/C [11] 8.28% | viability, T/C [12] 7.89% | viability, T/C (second compound 0.03 µM, first compound 0.01 µM) 11% | viability, T/C [13] 7.61% | viability, T/C [14] 6.76% | viability, T/C [15] 7.98% | viability, T/C [16] 6.7% | viability, T/C (second compound 0.0949 µM, first compound 0.00316 µM) 9.63% | viability, T/C (second compound 0.0949 µM, first compound 0.01 µM) 8.06% | viability, T/C [17] 7.29% | viability, T/C [18] 5.92% | viability, T/C [19] 6.25% | viability, T/C [20] 6.08% | viability, T/C (second compound 0.3 µM, first compound 0.00316 µM) 6.95% | viability, T/C (second compound 0.3 µM, first compound 0.01 µM) 7.22% | viability, T/C [21] 7.67% | viability, T/C [22] 5.52% | viability, T/C [23] 7.58% | viability, T/C [24] 6.63%
inactive: viability, T/C (second compound 0.000949 µM, first compound 0.00316 µM) 31% | viability, T/C (second compound 0.000949 µM, first compound 0.01 µM) 15.8% | viability, T/C (second compound 0.003 µM, first compound 0.00316 µM) 18.5% | viability, T/C (second compound 0.003 µM, first compound 0.01 µM) 12.8% | viability, T/C (second compound 0.00949 µM, first compound 0.00316 µM) 13.5% | viability, T/C (second compound 0.00949 µM, first compound 0.01 µM) 10.9% | viability, T/C (second compound 0.03 µM, first compound 0.00316 µM) 10.7%
< 3.16 nM: IC50 (second compound 0.000949 µM) | IC50 (second compound 0.003 µM) | IC50 (second compound 0.00949 µM) | IC50 (second compound 0.03 µM) | IC50 (second compound 0.0949 µM) | IC50 (second compound 0.3 µM)
